Assays:
A431 tumor bearing mice [1] = assay: Percentage of attenuation of fluorescence versus cellular cytotoxicity after therapeutic light irradiation (PIT), FIG. 4; format: in vivo
Description: The total amount of irradiation is the same in both the case where irradiation is performed with the therapeutic light L with the light intensity of 50 mW/cm^2 or less and the case where irradiation is performed with the therapeutic light L with the light intensity of 100 mW/cm^2 or more. In other words, in the case where irradiation is performed with the therapeutic light L with the light intensity of 50 mW/cm^2 or less, a time period during which the cells C are irradiated is longer than a time period during which the cells C are irradiated with the therapeutic light L with the light intensity of 100 mW/cm^2 or more.
After the cells C are irradiated with the therapeutic light L, if the rate of reduction of fluorescence (the percentage of attenuation of fluorescence) and cellular cytotoxicity have a proportional relation, as shown by a dashed-and-dotted line A in FIG. 4, when the rate of reduction of fluorescence is 100%, cellular cytotoxicity is 100%. Therefore, it should be determined that all cells C disappear if fluorescence is no longer detected.
How ever, as the result of experiments performed by the applicant, the following is found. In actual experiments, as the result of observation that is performed after irradiation, by using the endoscope 1, for example, as the rate of reduction of fluorescence approaches 70% (or little more than 70%), cellular cytotoxicity approaches 100%.

A431 tumor bearing mice [2] = assay: Rates of damage of tumor tissues from pathological images after irradiation at different light intensities (PIT), FIG. 5; format: in vivo; settings: 300 μg/mouse, irradiated one day after administration, total amount 100 J/cm^2, 25 mW/cm^2 or 50 mW/cm^2 compared with 100 mW/cm^2 or 300 mW/cm^2, tumors excised after one more day
Description: Pan-IR700, which is the photosensitizing agent 20, is administered to the A431 tumor bearing mice at 300 μg/mouse. One day after the administration of Pan-IR700, the cells C are irradiated with light of respective irradiation intensities shown in FIG. 5 up to the same total amount (100 J/cm^2). After one more day, tumor tissues are excised, and rates of damage of the tissues are calculated from pathological images of cross sections of the tumors.

Pan-IR700: phthalocyanine fluorescent dye (IRDye 700) attached to one antibody molecule (panitumumab, monoclonal antibody to Human EGFR)
cellular cytotoxicity (A431 tumor bearing mice [1]; as the rate of reduction of fluorescence approaches 70% (or little more than 70%), after irradiation with therapeutic light L, FIG. 4): ~100% | relationship of reduction of fluorescence and cellular cytotoxicity (A431 tumor bearing mice [1]; therapeutic light L with light intensity of 50 mW/cm^2 or less (solid line B, FIG. 4)): linear relationship | rate of cellular cytotoxicity (A431 tumor bearing mice [1]; therapeutic light L with light intensity of 100 mW/cm^2 or more (solid line D, FIG. 4), reduction of fluorescence also found): low | cellular cytotoxicity (rates of damage of the tissues) (A431 tumor bearing mice [2]): greater

Source: patent US20220096862A1, “METHOD FOR IRRADIATING CELLS WITH LIGHT, METHOD FOR CONTROLLING MEDICAL DEVICE, AND MEDICAL DEVICE” (OLYMPUS CORPORATION, priority 2019, published 2022)
